# Laboratory results from patent US10240133B2, “ERK-derived peptides and uses thereof” (Yeda Research and Development Co. Ltd., priority 2013, dated 2019).
# “Also recorded” adds a separate entry of the source.
# Columns and labels:
# Assay type in all cases: cell-based
# [1] = system: ERK1/2; assay: Western blotting of ERK phosphorylation (TEY, NTS)
# Protocol: (§1) (A) EPE peptide prevents ERK1/2-importin7 interaction. HeLa cells were serum starved (0.1%, 16 hours), pretreated with EPE peptide, scrambled peptide (10 μM, 2 hours) or DMSO, and then stimulated with TPA (250 nM, 15 min). ERK1 were precipitated with αgERK1 Ab; importin7 co-immunoprecipitated with ERK1 was detected by WB with αimportin7 Ab. […] T47D, HeLa, MDA-MB-231 and A2352 cells were serum starved (0.1%, 16 hours), pretreated with EPE peptide, scrambled peptide (10 μM, 2 hours) or DMSO control, and then stimulated with TPA (250 nM, indicated times). Cell extracts were subjected to Western blot analysis with the indicated Abs. (C) EPE peptide inhibits phosphorylation of c-Myc and Elk1 in B-Raf melanomas. A2158 and A2352 cells were treated with scrambled and EPE peptide for two hours and then stimulated with the indicated concentration of TPA for 30 min. […] (D) Quantification of some of the results in B and C. […]
# (§2) (i) Preparation of cellular extracts for Western Blotting: Cells were rinsed twice with ice-cold PBS and scraped into Radio-immunoprecipitation assay buffer (RIPA; 137 mM NaCl, 20 mM Tris (pH 7.4), 10% glycerol, 1% Triton X-100, 0.5% deoxycholate, 0.1% SDS, 2 mM EDTA, 1 mM PMSF, and 20 μM leupeptin). The extracts were centrifuged (20,000×g, 15 min, 4° C.), and the supernatants were further analyzed by Western blotting. […]
# [2] = system: ERK1/2; assay: Nuclear translocation of ERK (fluorescence microscopy, subcellular fractionation)
# Protocol: FIGS. 1A-1F illustrate that EPE peptide prevents nuclear translocation of ERK1. A2352 (A), MDA-MB-231 (B) HeLa (C), T47D (D), NHEM-AD (E) and HB2 (F) cells were serum-starved, pretreated with the EPE peptides, Scr peptide (10 μM, 2 h) DMSO and then either stimulated with TPA (250 nM, 15 min) or left untreated (NS) as control. The cells were stained with αgERK1/2 Ab and DAPI. Scale-bar—15 μm.
# FIGS. 12A-12D illustrate that the EPE peptide inhibits the nuclear translocation of ERK1/2. Serum-starved (0.1% FCS, 16 hr) A2352 (FIG. 12A), HeLa (FIG. 12B), MDA-MB-231 (FIG. 12C), or LOXMVI (FIG. 12D) cells were pretreated with EPE or scrambled peptides (10 μM, 2 hr). Cells were then stimulated with EGF (50 ng/ml) or left untreated, and then harvested. Subcellular fractionation of cytoplasm and nucleus was performed as below, and fractions were subjected to Western blot analysis with the indicated Abs. Subcellular Fractionation was performed as follows: Harvested cells were resuspended in 200 μl of buffer H containing 0.1% Nonidet P-40. The lysates were mixed vigorously and centrifuged immediately to yield supernatants containing the cytosolic fraction. Nuclear proteins were extracted by resuspending the nuclear pellets in 200 μl of extraction buffer, waiting on ice for 5 min, brief sonication (2×5 sec, 40 W, 4° C.), vigorous mixing, and centrifugation. Both cytosolic and nuclear fractions were subjected to Western blotting.
# A2185 (A) and A2352 (B) B-Raf melanoma cells were serum-starved (16 hours, 0.1% FBS), and then either pretreated with the EPE peptides (10 μM, 2 hours) or left untreated. Then, the cells were stimulated with TPA ([…], 20 min), or left untreated (NS) DMSO as control. The cells were stained with either anti ERK1 (Santa Cruz, C16) or anti ERK2 (C14, Santa Cruz) Abs and DAPI. (C) Quantification of the number of cell in which ERK1 or ERK2 were mostly (>80%) localized in the nucleus was performed by counting 5 fields containing 100 cells per field.
# FIGS. 15A-15B illustrate that the EPE peptide prevents nuclear accumulation/translocation of ERK1/2 in PLX4032-resistant melanoma cells. A2352 that were made resistant to PLX4032 (as described under Material and Methods) and A4132 PLX4032 resistant melanoma cell from patient were serum-starved (16 hours, 0.1%), pretreated with the EPE or scrambled peptide (10 μM, 2 hours) and then either stimulated with TPA (100 nM, 20 min) or left untreated (NT) as control. The cells were stained with αgERK1/2 Ab and DAPI.
# Cells were fixed in 3% paraformaldehyde in PBS (20 min, 23° C.), and then permeabilized and blocked with 0.2% Triton X-100 in PBS-BSA (2%) for 20 min at 23° C. The fixed cells were sequentially incubated with appropriated Abs, (diluted in 10 μg/ml BSA/PBS) for 1 h, followed by either Cy-2 or rhodamine-conjugated secondary Abs and DAPI (diluted in BSA/PBS, 1:200) for 1 h. To follow the subcellular localization of the biotin-conjugated peptides, cells were incubated with Avidin-FITC (diluted in BSA/PBS 1:400) and DAPI. Slides were analyzed and photographed by a fluorescent microscope (Nikon, Japan, 600× magnification).
# [3] = biological target: T1, interaction of Imp7 with ERK (Homo sapiens, UniProt O95373); assay: Coimmunoprecipitation of Imp7 with ERK; conditions: HeLa cells; 10 μM, 2 hours; TPA
# T1 construct: endogenous in cells; host or cells: HeLa
# T1 sequence (O95373 whole entry): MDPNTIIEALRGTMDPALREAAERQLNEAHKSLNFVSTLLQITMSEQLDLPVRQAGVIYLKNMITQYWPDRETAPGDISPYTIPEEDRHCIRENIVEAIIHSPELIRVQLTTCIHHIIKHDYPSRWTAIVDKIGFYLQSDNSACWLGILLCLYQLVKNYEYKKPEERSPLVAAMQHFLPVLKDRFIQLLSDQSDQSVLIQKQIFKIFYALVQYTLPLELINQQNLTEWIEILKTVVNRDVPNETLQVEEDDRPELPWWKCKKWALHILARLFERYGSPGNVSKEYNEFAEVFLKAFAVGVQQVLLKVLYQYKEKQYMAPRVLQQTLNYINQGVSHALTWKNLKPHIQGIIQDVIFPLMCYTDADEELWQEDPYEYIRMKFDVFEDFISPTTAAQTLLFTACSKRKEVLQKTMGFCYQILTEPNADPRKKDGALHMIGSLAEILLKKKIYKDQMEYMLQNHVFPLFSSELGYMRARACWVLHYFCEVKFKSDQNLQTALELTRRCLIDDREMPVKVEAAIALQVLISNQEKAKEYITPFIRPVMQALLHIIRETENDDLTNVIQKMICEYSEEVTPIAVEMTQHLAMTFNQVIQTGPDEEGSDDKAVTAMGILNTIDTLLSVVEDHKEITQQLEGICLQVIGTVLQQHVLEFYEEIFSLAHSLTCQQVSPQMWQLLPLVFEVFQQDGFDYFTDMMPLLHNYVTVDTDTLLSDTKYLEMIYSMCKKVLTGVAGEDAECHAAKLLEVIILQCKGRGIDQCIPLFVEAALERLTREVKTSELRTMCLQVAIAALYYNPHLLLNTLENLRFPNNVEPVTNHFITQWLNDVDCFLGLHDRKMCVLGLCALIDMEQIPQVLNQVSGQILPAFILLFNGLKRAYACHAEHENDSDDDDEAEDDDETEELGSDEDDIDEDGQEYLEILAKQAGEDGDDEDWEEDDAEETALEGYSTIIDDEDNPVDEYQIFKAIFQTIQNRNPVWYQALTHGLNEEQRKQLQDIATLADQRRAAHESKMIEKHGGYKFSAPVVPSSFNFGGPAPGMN
# Protocol: as §1, §2
# [4] = system: c-Myc; assay: Western blotting of c-Myc phosphorylation; conditions: A2158 and A2352 B-Raf melanomas
# Protocol: as §1, §2
sequence,measurement,setting,value
"GQLNHILGILGEPEQED (Synthetic peptide (EPE)) [EPE peptide, NTS-derived peptide with phosphomimetic EPE motif]",NTS phosphorylation (by CK2) of ERK1/2,"[1]; T47D, HeLa, MDA-MB-231 and A2352 cells",only slightly affected; also recorded: prevents ERK1/2's NTS
same,activatory ERK-TEY phosphorylation,[1]; four distinct cell lines,no effect
same,"inhibitory effect on nuclear translocation of ERK, compared among SPS, EPE and APA peptides",[2],stronger than that of the other two
same,inhibition of ERK1 versus ERK2 translocation,[2]; A2185 and A2352 B-Raf melanoma cells,No significant differences between the inhibition of ERK1 and ERK2
same,nuclear translocation of ERK1/2 by subcellular fractionation,"[2]; A2352, HeLa, MDA-MB-231, LOXMVI, 10 μM, 2 hr, EGF",same trend of inhibition
same,amount of nuclear ERK1/2 in resistant melanoma cells,"[2]; PLX4032-resistant A2352 and A4132 cells, 10 μM, 2 hours, TPA",reduced the amount of nuclear ERK1/2 both before and after stimulation
same,interaction of Imp7 with ERK,[3],prevented the interaction of Imp7 with ERK
same,phosphorylation of c-Myc,[4],did inhibit
